Assays:
[1] = tested on: HepG2; experiment: cells; conditions: Homo sapiens
Description: Cytotoxicity against human HepG2 cells by MTT assay

[2] = target: T1, Vascular endothelial growth factor receptor 2 (Homo sapiens, UniProt P35968)
Description: Inhibition of human VEGFR-2 by ELISA

[3] = target: Carbonic anhydrase 1 (Homo sapiens, UniProt P00915); experiment: Inhibition of recombinant human carbonic anhydrase 1 incubated for 15 mins prior to testing by phenol red based stopped-flow CO2 hydration assay
[4] = target: T1, Vascular endothelial growth factor receptor 2; remark: listed apart in the source
[5] = target: Carbonic anhydrase 2 (Homo sapiens, UniProt P00918); experiment: Inhibition of recombinant human carbonic anhydrase 2 incubated for 15 mins prior to testing by phenol red based stopped-flow CO2 hydration assay

T1 sequence (P35968 whole entry): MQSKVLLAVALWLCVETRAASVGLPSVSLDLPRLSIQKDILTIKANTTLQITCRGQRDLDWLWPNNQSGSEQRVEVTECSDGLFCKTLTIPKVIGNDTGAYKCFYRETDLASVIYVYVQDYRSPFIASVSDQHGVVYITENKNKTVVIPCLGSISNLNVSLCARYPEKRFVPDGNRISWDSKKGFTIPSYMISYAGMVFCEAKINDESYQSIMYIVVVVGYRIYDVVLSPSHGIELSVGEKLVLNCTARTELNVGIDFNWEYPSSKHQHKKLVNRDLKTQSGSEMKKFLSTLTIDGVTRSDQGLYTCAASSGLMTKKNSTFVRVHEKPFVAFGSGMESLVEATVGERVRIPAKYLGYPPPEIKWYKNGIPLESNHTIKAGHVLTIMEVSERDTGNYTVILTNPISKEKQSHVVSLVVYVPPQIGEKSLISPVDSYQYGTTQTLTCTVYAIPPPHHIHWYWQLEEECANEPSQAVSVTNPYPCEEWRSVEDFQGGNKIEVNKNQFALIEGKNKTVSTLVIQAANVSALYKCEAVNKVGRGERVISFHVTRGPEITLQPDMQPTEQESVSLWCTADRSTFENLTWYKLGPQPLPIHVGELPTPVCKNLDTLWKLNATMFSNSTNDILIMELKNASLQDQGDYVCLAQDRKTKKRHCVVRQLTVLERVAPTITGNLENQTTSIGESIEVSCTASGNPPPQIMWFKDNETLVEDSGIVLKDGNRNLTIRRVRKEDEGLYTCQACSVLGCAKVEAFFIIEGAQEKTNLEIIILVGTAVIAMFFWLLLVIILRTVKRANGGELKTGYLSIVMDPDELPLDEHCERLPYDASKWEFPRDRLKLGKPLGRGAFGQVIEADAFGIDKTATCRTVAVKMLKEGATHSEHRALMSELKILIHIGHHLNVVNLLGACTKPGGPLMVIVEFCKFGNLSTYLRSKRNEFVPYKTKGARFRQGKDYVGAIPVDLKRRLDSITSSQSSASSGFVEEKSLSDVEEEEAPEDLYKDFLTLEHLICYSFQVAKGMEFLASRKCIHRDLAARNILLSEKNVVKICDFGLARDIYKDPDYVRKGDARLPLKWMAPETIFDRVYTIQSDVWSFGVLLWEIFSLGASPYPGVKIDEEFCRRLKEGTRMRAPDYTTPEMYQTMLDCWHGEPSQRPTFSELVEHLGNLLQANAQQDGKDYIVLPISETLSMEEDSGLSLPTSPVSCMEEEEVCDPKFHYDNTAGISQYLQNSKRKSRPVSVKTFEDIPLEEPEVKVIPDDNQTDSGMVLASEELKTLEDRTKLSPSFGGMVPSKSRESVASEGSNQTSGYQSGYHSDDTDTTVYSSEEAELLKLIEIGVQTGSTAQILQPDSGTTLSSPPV
Chain of Carbonic anhydrase 1 (P00915 whole entry): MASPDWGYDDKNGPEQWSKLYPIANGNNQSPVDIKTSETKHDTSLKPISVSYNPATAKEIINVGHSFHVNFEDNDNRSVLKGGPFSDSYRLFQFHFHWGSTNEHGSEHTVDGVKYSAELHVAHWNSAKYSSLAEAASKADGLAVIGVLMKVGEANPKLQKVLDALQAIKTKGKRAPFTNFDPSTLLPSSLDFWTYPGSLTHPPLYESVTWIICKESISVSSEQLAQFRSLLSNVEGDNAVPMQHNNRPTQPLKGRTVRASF

Row | Compound | IC50 [1] | IC50 [2] | Ki [3] | IC50 [4] | Ki [5]
1 | COc1cc(-c2nc(C(=O)Nc3ccccc3)nn2-c2ccc(F)c(Cl)c2)cc(OC)c1OC | 240 nM | 19.8 nM |  |  | 
2 | COc1ccc(-n2nc(NC(=O)NCCc3ccc(S(N)(=O)=O)cc3)nc2-c2ccccc2)cc1 |  |  | 82.7 nM |  | 
3 | NS(=O)(=O)c1ccc(NC(=O)Nc2nc(-c3ccccc3)n(-c3cccc(Cl)c3)n2)cc1 |  |  | 2690 nM | > 1000 nM | 
4 | COc1ccc(-n2nc(NC(=O)Nc3ccccc3S(N)(=O)=O)nc2-c2ccccc2)cc1OC |  |  | > 10000 nM |  | 112 nM
5 | NS(=O)(=O)c1ccc(NC(=O)Nc2nc(-c3ccccc3)n(-c3ccc(Cl)cc3)n2)cc1 |  |  |  | 318 nM | 84.6 nM
6 | COc1ccc(-n2nc(NC(=O)Nc3cccc(S(N)(=O)=O)c3)nc2-c2ccccc2)cc1OC |  |  | > 10000 nM |  | 285 nM
7 | COc1ccc(-n2nc(NC(=O)Nc3cccc(S(N)(=O)=O)c3)nc2-c2ccccc2)cc1 |  |  | 4190 nM | 183 nM | 56 nM
8 | COc1ccc(-n2nc(NC(=O)Nc3ccc(S(N)(=O)=O)cc3)nc2-c2ccccc2)cc1OC |  |  |  |  | 16.9 nM
9 | NS(=O)(=O)c1cccc(NC(=O)Nc2nc(-c3ccccc3)n(-c3ccc(F)cc3)n2)c1 |  |  | 4900 nM |  | 99 nM
10 | Cc1ccc(NC(=O)Nc2nc(-c3ccccc3)n(-c3ccc(F)cc3)n2)cc1S(N)(=O)=O |  |  | > 10000 nM |  | 170 nM
11 | COc1ccc(-n2nc(NC(=O)Nc3ccccc3S(N)(=O)=O)nc2-c2ccccc2)cc1 |  |  | > 10000 nM |  | 158 nM
12 | Cc1ccc(NC(=O)Nc2nc(-c3ccccc3)n(-c3ccc(Cl)cc3)n2)cc1S(N)(=O)=O |  |  | > 10000 nM | 541 nM | 127 nM
13 | COc1ccc(-n2nc(NC(=O)Nc3ccc(C)c(S(N)(=O)=O)c3)nc2-c2ccccc2)cc1OC |  |  |  |  | 547 nM
14 | COc1ccc(-n2nc(NC(=O)Nc3ccc(C)c(S(N)(=O)=O)c3)nc2-c2ccccc2)cc1 |  |  |  | 717 nM | 72.4 nM
15 | NS(=O)(=O)c1cccc(NC(=O)Nc2nc(-c3ccccc3)n(-c3ccc(Cl)cc3)n2)c1 |  |  | 8260 nM |  | 
16 | NS(=O)(=O)c1ccccc1NC(=O)Nc1nc(-c2ccccc2)n(-c2cccc(Cl)c2)n1 |  |  | > 10000 nM |  | 

Row | Compound | IC50 [1] | IC50 [2] | Ki [3] | IC50 [4] | Ki [5]
17 | NS(=O)(=O)c1ccc(CCNC(=O)Nc2nc(-c3ccccc3)n(-c3cccc(Cl)c3)n2)cc1 |  |  | 61.8 nM |  | 20.1 nM
18 | NS(=O)(=O)c1ccccc1NC(=O)Nc1nc(-c2ccccc2)n(-c2ccc(F)cc2)n1 |  |  | > 10000 nM |  | 384 nM
19 | COc1ccc(-n2nc(NC(=O)Nc3ccc(S(N)(=O)=O)cc3)nc2-c2ccccc2)cc1 |  |  | 3870 nM |  | 29.4 nM
20 | NS(=O)(=O)c1ccc(NC(=O)Nc2nc(-c3ccccc3)n(-c3ccc(F)cc3)n2)cc1 |  |  | 2250 nM |  | 25.2 nM
21 | COc1cccc(-n2nc(NC(=O)Nc3ccc(S(N)(=O)=O)cc3)nc2-c2ccccc2)c1 |  |  |  |  | 13.6 nM
22 | NS(=O)(=O)c1cccc(NC(=O)Nc2nc(-c3ccccc3)n(-c3cccc(Cl)c3)n2)c1 |  |  | 5820 nM |  | 101 nM
23 | NS(=O)(=O)c1ccccc1NC(=O)Nc1nc(-c2ccccc2)n(-c2ccc(Cl)cc2)n1 |  |  | > 10000 nM | 271 nM | 241 nM
24 | COc1cccc(-n2nc(NC(=O)Nc3ccccc3S(N)(=O)=O)nc2-c2ccccc2)c1 |  |  | > 10000 nM |  | 158 nM
25 | Cc1ccc(NC(=O)Nc2nc(-c3ccccc3)n(-c3cccc(Cl)c3)n2)cc1S(N)(=O)=O |  |  | > 10000 nM | 96.2 nM | 91.4 nM
26 | NS(=O)(=O)c1ccc(CCNC(=O)Nc2nc(-c3ccccc3)n(-c3ccc(F)cc3)n2)cc1 |  |  | 39.8 nM |  | 3.4 nM
27 | COc1ccc(-n2nc(NC(=O)NCCc3ccc(S(N)(=O)=O)cc3)nc2-c2ccccc2)cc1OC |  |  | 153 nM |  | 16.4 nM
28 | COc1cccc(-n2nc(NC(=O)NCCc3ccc(S(N)(=O)=O)cc3)nc2-c2ccccc2)c1 |  |  | 104 nM |  | 35.8 nM
29 | COc1cccc(-n2nc(NC(=O)Nc3ccc(C)c(S(N)(=O)=O)c3)nc2-c2ccccc2)c1 |  |  | > 10000 nM |  | 230 nM
30 | NS(=O)(=O)c1ccc(CCNC(=O)Nc2nc(-c3ccccc3)n(-c3ccc(Cl)cc3)n2)cc1 |  |  |  |  | 41.7 nM
31 | COc1cccc(-n2nc(NC(=O)Nc3cccc(S(N)(=O)=O)c3)nc2-c2ccccc2)c1 |  |  | 9430 nM |  | 91.5 nM
